Assay results from ChEMBL document CHEMBL4371056, “The development and characterization of a chemical probe targeting PRMT1 over PRMT5” (Bioorg Med Chem, 2019).
Calls of active or inactive are those of the source. The calls are words filed in the database; no cut-off is given here. Starred links: 1 amine or outer side, 2 acyl side, 3 side chain; linkers in the order of their positions; H or OH if unused. Non-standard residues stand in square brackets, D forms with d. Residues, ends and D or L forms follow the SMILES beside them. *: point of attachment. X1 = N=C(CCl)NCCCC(N[*:1])C(=O)[*:2]; Butanoyl(4-ethynyl) = C#CCCCC(=O)*

Columns and labels:
[1] = target: T1, Protein arginine N-methyltransferase 5 (Homo sapiens, UniProt O14744); experiment: Inhibition of recombinant full-length N-terminal His6-tagged PRMT5 (unknown origin) using AcH4-21 peptide substrate preincubated for 10 mins followed by substrate/14C-methyl-SAM addition and measured after 15 mins by phosphorimaging analysis based radioisotopic assay
[2] = target: T2, Protein arginine N-methyltransferase 1 (Homo sapiens, UniProt Q99873); experiment: (§1) Binding affinity to recombinant full-length N-terminal His6-tagged PRMT1 (unknown origin) assessed as biotin labelling of PRMT1 at 10 uM in presence of recombinant full-length N-terminal His6-tagged PRMT5 (unknown origin) using biotin azide and in presence of SAM incubated for 30 mins at 37 degC by Western blot analysis
Target sequence in this assay (Q99873 whole entry, looked up): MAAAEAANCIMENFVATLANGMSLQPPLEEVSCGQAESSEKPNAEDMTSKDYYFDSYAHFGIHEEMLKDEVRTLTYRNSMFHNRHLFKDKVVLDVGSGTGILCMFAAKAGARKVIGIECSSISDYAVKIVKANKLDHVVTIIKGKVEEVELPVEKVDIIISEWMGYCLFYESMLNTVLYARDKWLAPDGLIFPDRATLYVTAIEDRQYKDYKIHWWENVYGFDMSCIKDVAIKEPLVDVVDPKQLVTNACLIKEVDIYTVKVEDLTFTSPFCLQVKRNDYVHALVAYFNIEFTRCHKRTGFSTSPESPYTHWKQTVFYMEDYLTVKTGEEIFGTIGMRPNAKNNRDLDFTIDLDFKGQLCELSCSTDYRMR

Homo sapiens [3] = species on record: Homo sapiens; experiment: Selectivity index, ratio of binding affinity to recombinant full-length N-terminal His6-tagged PRMT5 (unknown origin) assessed as biotin labelling of PRMT5 at 25 uM to binding affinity to recombinant full-length N-terminal His6-tagged PRMT1 (unknown origin) assessed as biotin labelling of PRMT1 at 25 uM
[4] = target: T2, Protein arginine N-methyltransferase 1; experiment: Binding affinity to recombinant full-length N-terminal His6-tagged PRMT1 (unknown origin) assessed as biotin labelling of PRMT1 at 1 uM using biotin azide and in presence of SAM incubated for 30 mins by Western blot analysis
Target sequence in this assay (Q99873 whole entry, looked up): as above

[5] = target: T2, Protein arginine N-methyltransferase 1; experiment: Inhibition of recombinant full-length N-terminal His6-tagged PRMT1 (unknown origin) using AcH4-21 peptide substrate preincubated for 10 mins followed by substrate/14C-methyl-SAM addition and measured after 15 mins by phosphorimaging analysis based radioisotopic assay
Target sequence in this assay (Q99873 whole entry): as the sequence (Q99873 whole entry, looked up) above

[6] = target: T2, Protein arginine N-methyltransferase 1; experiment: as §1, with “25” for “37”
Target sequence in this assay (Q99873 whole entry, looked up): as above

Homo sapiens [7] = species on record: Homo sapiens; experiment: Binding affinity to PRMT1 C101A mutant (unknown origin) assessed as biotin labelling of PRMT1 at >25 uM using biotin azide and in presence of SAM incubated for 30 mins by Western blot analysis
Homo sapiens [8] = species on record: Homo sapiens; experiment: Binding affinity to PRMT1 C101A mutant (unknown origin) assessed as biotin labelling of PRMT1 at <25 uM using biotin azide and in presence of SAM incubated for 30 mins by Western blot analysis
[9] = target: T2, Protein arginine N-methyltransferase 1; experiment: Binding affinity to recombinant full-length N-terminal His6-tagged PRMT1 (unknown origin) assessed as biotin labelling of PRMT1 at 1 uM using biotin azide and in absence of SAM incubated for 30 mins by Western blot analysis
Target sequence in this assay (Q99873 whole entry, looked up): as above

[10] = target: T2, Protein arginine N-methyltransferase 1; experiment: Binding affinity to recombinant full-length N-terminal His6-tagged PRMT1 (unknown origin) assessed as biotin labelling of PRMT1 at >25 uM using biotin azide incubated for 30 mins by Western blot analysis
Target sequence in this assay (Q99873 whole entry, looked up): as above

[11] = target: T2, Protein arginine N-methyltransferase 1; experiment: Binding affinity to recombinant full-length N-terminal His6-tagged PRMT1 (unknown origin) assessed as lowest drug level for biotin labelling of PRMT1 using biotin azide and in presence of SAM incubated for 30 mins by Western blot analysis
Target sequence in this assay (Q99873 whole entry, looked up): as above

[12] = target: T1, Protein arginine N-methyltransferase 5; experiment: Binding affinity to recombinant full-length N-terminal His6-tagged PRMT5 (unknown origin) assessed as biotin labelling of PRMT5 at 50 uM using biotin azide incubated for 30 mins by Western blot analysis
[13] = target: T2, Protein arginine N-methyltransferase 1; experiment: Binding affinity to recombinant full-length N-terminal His6-tagged PRMT1 (unknown origin) assessed as time needed for maximum biotin labelling of PRMT1 at 10 uM using biotin azide and in presence of SAM incubated for 30 mins by Western blot analysis
Homo sapiens [14] = species on record: Homo sapiens; experiment: Binding affinity to PRMT1 C101A mutant (unknown origin) assessed as optimum drug level for biotin labelling of PRMT1 using biotin azide and in presence of SAM incubated for 30 mins by Western blot analysis

T1 sequence (O14744 whole entry): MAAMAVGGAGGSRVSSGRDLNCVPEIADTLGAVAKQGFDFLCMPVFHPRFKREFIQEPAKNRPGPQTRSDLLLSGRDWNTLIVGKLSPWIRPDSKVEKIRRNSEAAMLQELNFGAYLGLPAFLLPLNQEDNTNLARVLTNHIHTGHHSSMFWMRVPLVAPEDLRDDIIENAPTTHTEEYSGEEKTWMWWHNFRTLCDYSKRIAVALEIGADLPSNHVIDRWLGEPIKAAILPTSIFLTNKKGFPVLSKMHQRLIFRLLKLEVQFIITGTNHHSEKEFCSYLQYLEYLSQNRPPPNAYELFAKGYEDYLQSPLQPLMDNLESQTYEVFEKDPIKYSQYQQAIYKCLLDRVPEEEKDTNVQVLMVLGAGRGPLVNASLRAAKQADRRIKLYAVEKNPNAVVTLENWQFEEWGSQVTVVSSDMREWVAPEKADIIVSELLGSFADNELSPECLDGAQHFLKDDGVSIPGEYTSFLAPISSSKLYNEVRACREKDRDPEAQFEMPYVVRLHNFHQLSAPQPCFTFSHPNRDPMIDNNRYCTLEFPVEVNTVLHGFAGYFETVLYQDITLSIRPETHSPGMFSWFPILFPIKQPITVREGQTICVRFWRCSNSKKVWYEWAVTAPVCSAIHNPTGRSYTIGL

C#CCCCC(=O)N[C@@H](Cc1cnc[nH]1)C(=O)N[C@@H](CCCCN)C(=O)N[C@@H](Cc1cnc[nH]1)C(=O)N[C@@H](C)C(=O)NC(CCCNC(=N)CCl)C(=O)NCC(=O)NCC(=O)N[C@@H](CCCCN)C(=O)NCC(=O)N[C@@H](CC(C)C)C(=O)NCC(=O)N[C@@H](CCCCN)C(=O)NCC(=O)NCC(=O)N[C@@H](C)C(=O)N[C@@H](CCCCN)C(=O)O (some centres undefined) ({Butanoyl(4-ethynyl)}-HKHA[X1]GGKGLGKGGAK-OH)
IC50 [1]: > 500 µM
Activity [2]: Active
Ratio (Homo sapiens [3]): 8
Activity [4]: Active
IC50 [5]: 20 µM
Activity [6]: Active
Activity (Homo sapiens [7]): Active
Activity (Homo sapiens [8]): inactive
Activity [9]: Active
Activity [10]: Active
Activity [11]: 0.25 µM
Activity [12]: inactive
TIME [13]: 0.5 h
Activity (Homo sapiens [14]): 10 µM
